Where a name gives a salt, the structure may show the parent alone.
Experiments:
[1] = test system: E. coli RNase P RNA, M1 RNA; experiment: Inhibition of bacterial RNase P activity, IC50 determination (cleavage of pATSerUG by M1 RNA); assay type: biochemical; details: NI: No inhibition
[2] = test system: Escherichia coli (ATCC25922); experiment: MIC, broth microdilution (CLSI), Escherichia coli; details: Escherichia coli, ATCC25922, read-out: E. coli ATCC 25922 MIC, Table XIII
[3] = test system: Staphylococcus aureus (ATCC25923); experiment: MIC, broth microdilution (CLSI), Staphylococcus aureus ATCC25923; details: Staphylococcus aureus, ATCC25923, read-out: S. aureus ATCC 25923 MIC

Row | IC50 [1] | MIC [2] | MIC [3] | IC50 ([1]; hydrochloride salt) | SMILES
1 | 201 µM | > 512 µg/mL | 68 µg/mL |  | COc1cccc(C(CC(=O)NCCC2CCNCC2)c2cn(Cc3ccccc3)c3ccccc23)c1.Cl (stereo not drawn) [Compound 68, 3-(1-benzyl-1H-indol-3-yl)-3-(3-methoxyphenyl)-N-(2-(piperidin-4-yl)ethyl)propanamide hydrochloride salt]
2 | 11 µM | 134 µg/mL | 17 µg/mL |  | Cc1cccc(C(CC(=O)N2CCC(CCN)CC2)c2cn(CC3CCCCC3)c3ccccc23)c1.Cl (stereo not drawn) [Compound 181, 1-(4-(2-aminoethyl)piperidin-1-yl)-3-(1-(cyclohexylmethyl)-1H-indol-3-yl)-3-(m-tolyl)propan-1-one hydrochloride salt]
3 | 210 µM | > 512 µg/mL | 279 µg/mL |  | Cc1cccc(C(CC(=O)NC2CCC(N)CC2)c2cn(CC3CCNCC3)c3ccccc23)c1 [Compound 159, N-((1S,4S)-4-aminocyclohexyl)-3-(1-(piperidin-4-ylmethyl)-1H-indol-3-yl)-3-(m-tolyl)propanamide hydrochloride salt]
4 | 14 µM | 512 µg/mL | 32 µg/mL |  | Cc1cccc(C(CC(=O)N[C@H]2CC[C@H](N)CC2)c2cn(CCC3CCCCC3)c3ccccc23)c1.Cl (stereo partly drawn) [Compound 113, N-((1R,4R)-4-aminocyclohexyl)-3-(1-(2-cyclohexylethyl)-1H-indol-3-yl)-3-(m-tolyl)propanamide hydrochloride salt]
5 | 14.7 µM | 2 µg/mL | 2 µg/mL |  | Cc1ccccc1-c1ccc2c(c1)c(CCN[C@H]1CC[C@H](N)CC1)cn2CC1CCCCC1 [Compound 244, (1R,4R)-N1-(2-(1-(cyclohexylmethyl)-5-(o-tolyl)-1H-indol-3-yl)ethyl)cyclohexane-1,4-diamine hydrochloride salt]
6 | 17 µM | 151 µg/mL | 9 µg/mL |  | Cc1cccc(C(CC(=O)NC2CCC(N)CC2)c2cn(CC3CCCCC3)c3ccc(-c4ccnn4C)cc23)c1.Cl (stereo not drawn) [Compound 183, N-(4-aminocyclohexyl)-3-(1-(cyclohexylmethyl)-5-(1-methyl-1H-pyrazol-5-yl)-1H-indol-3-yl)-3-(m-tolyl)propanamide hydrochloride salt]
7 | 32 µM | > 512 µg/mL | 150 µg/mL |  | Cc1cccc(C(CC(=O)NC2CCC(N)CC2)c2cn(CC3CCCCC3)c3c(Br)cccc23)c1.Cl [Compound 174, N-((1S,4S)-4-aminocyclohexyl)-3-(7-bromo-1-(cyclohexylmethyl)-1H-indol-3-yl)-3-(m-tolyl)propanamide hydrochloride salt]
8 | 10 µM | 31 µg/mL | 15 µg/mL |  | Cl.N[C@H]1CC[C@H](NC(=O)Cc2cn(CC3CCCCC3)c3ccc(Br)cc23)CC1 [Compound 190, N-((1R,4R)-4-aminocyclohexyl)-2-(5-bromo-1-(cyclohexylmethyl)-1H-indol-3-yl)acetamide hydrochloride salt]
9 | 12.7 µM | > 512 µg/mL | 17 µg/mL |  | CC(C)c1cccc(C(CC(=O)N[C@H]2CC[C@H](N)CC2)c2cn(CC3CCCCC3)c3ccccc23)c1.Cl (stereo partly drawn) [Compound 198, N-((1R,4R)-4-aminocyclohexyl)-3-(1-(cyclohexylmethyl)-1H-indol-3-yl)-3-(3-isopropylphenyl) propanamide hydrochloride salt]
10 | 16 µM | > 512 µg/mL | 16 µg/mL |  | Cc1cccc(C(CC(=O)N[C@H]2CCCC[C@@H]2N)c2cn(CC3CCCCC3)c3ccccc23)c1.Cl (stereo partly drawn) [Compound 189, N-((1S,2S)-2-aminocyclohexyl)-3-(1-(cyclohexylmethyl)-1H-indol-3-yl)-3-(m-tolyl)propanamide hydrochloride salt]
11 | 45 µM | 128 µg/mL | 16 µg/mL |  | COc1ccc2c(c1)c(C(CC(=O)NC1CCC(N)CC1)c1cccc(C)c1)cn2CC1CCCCC1.Cl [Compound 151, N-((1S,4S)-4-aminocyclohexyl)-3-(1-(cyclohexylmethyl)-5-methoxy-1H-indol-3-yl)-3-(m-tolyl)propanamide hydrochloride salt]
12 | 12 µM | 5 µg/mL | 2 µg/mL |  | NC1CCC(NCCC(c2cc(Cl)cc(Cl)c2)c2cn(CC3CCCCC3)c3ccccc23)CC1 [Compound 171, (1S,4S)-N1-(3-(1-(cyclohexylmethyl)-1H-indol-3-yl)-3-(3,5-dichlorophenyl)propyl) cyclohexane-1,4-diamine hydrochloride salt]
13 | 168 µM | > 512 µg/mL | 19 µg/mL |  | Cc1cccc(C(CC(=O)NCC2CNCCO2)c2cn(CC3CCCCC3)c3ccc(Br)cc23)c1.Cl (stereo not drawn) [Compound 281, 3-(5-bromo-1-(cyclohexylmethyl)-1H-indol-3-yl)-N-(morpholin-2-ylmethyl)-3-(m-tolyl)propanamide hydrochloride salt]
14 | 31 µM | 8 µg/mL | 4 µg/mL |  | N[C@H]1CC[C@H](NCCc2cn(CC3CCCCC3)c3ccc(Br)cc23)CC1 [Compound 197, (1R,4R)-N1-(2-(5-bromo-1-(cyclohexylmethyl)-1H-indol-3-yl)ethyl) cyclohexane-1,4-diamine hydrochloride salt]
15 | 12 µM | 67 µg/mL | 17 µg/mL |  | COc1cccc(C(CC(=O)NC2CCC(N)CC2)c2cn(CC3CCCCC3)c3ccccc23)c1.Cl [Compound 160, N-((1S,4S)-4-aminocyclohexyl)-3-(1-(cyclohexylmethyl)-1H-indol-3-yl)-3-(3-methoxyphenyl) propanamide hydrochloride salt]
16 | 16 µM | 64 µg/mL | 8 µg/mL |  | Cc1cccc(C(CC(=O)N[C@H]2CC[C@H](N)CC2)c2cn(CC3CCCCC3)c3ccccc23)c1.Cl (stereo partly drawn) [Compound 104, N-((1R,4R)-4-aminocyclohexyl)-3-(1-(cyclohexylmethyl)-1H-indol-3-yl)-3-(m-tolyl)propanamide hydrochloride salt]
17 | 13 µM | > 512 µg/mL | 4 µg/mL |  | Cl.N[C@H]1CC[C@H](NC(=O)CC(c2cccc(C(F)(F)F)c2)c2cn(CC3CCCCC3)c3ccccc23)CC1 (stereo partly drawn) [Compound 129, N-((1R,4R)-4-aminocyclohexyl)-3-(1-(cyclohexylmethyl)-1H-indol-3-yl)-3-(3-(trifluoromethyl)phenyl) propanamide hydrochloride salt]
18 | 103 µM | 131 µg/mL | 16 µg/mL |  | Cc1cccc(C(CC(=O)NCC2CNCCO2)c2cn(CC3CCCCC3)c3ccccc23)c1.Cl (stereo not drawn) [Compound 280, 3-(1-(cyclohexylmethyl)-1H-indol-3-yl)-N-(morpholin-2-ylmethyl)-3-(m-tolyl)propanamide hydrochloride salt]
19 | 10 µM | 4 µg/mL | 4 µg/mL |  | NC1CCC(NCCC(c2cccc(F)c2)c2cn(CC3CCCCC3)c3ccccc23)CC1 [Compound 172, (1S,4S)-N1-(3-(1-(cyclohexylmethyl)-1H-indol-3-yl)-3-(3-fluorophenyl)propyl) cyclohexane-1,4-diamine hydrochloride salt]
20 | 93 µM | 128 µg/mL | 32 µg/mL |  | CC(C)C(CC(=O)N[C@H]1CC[C@H](N)CC1)c1cn(CC2CCCCC2)c2ccccc12.Cl (stereo partly drawn) [Compound 131, N-((1R,4R)-4-aminocyclohexyl)-3-(1-(cyclohexylmethyl)-1H-indol-3-yl)-4-methylpentanamide hydrochloride salt]
21 | 64 µM | 512 µg/mL | 8 µg/mL |  | Cc1cc(F)cc(C(CC(=O)NC2CCC(N)CC2)c2cn(CC3CCCCC3)c3ccccc23)c1.Cl [Compound 150, N-((1S,4S)-4-aminocyclohexyl)-3-(1-(cyclohexylmethyl)-1H-indol-3-yl)-3-(3-fluoro-5-methylphenyl) propanamide hydrochloride salt]
22 | 1330 µM | > 512 µg/mL | 512 µg/mL |  | N[C@H]1CC[C@H](NC(=O)CC(c2cn(CC3CCCCC3)c3ccccc23)C2CCNCC2)CC1 (stereo partly drawn) [Compound 107, N-((1r,4r)-4-aminocyclohexyl)-3-(1-(cyclohexylmethyl)-1H-indol-3-yl)-3-(piperidin-4-yl)propanamide hydrochloride salt]
23 |  | 264 µg/mL | 66 µg/mL | 172 µM | Cc1cccc(C(CC(=O)NCCC2CCNCC2)c2cn(Cc3ccccc3)c3ccccc23)c1.Cl (stereo not drawn) [Compound 55, 3-(1-benzyl-1H-indol-3-yl)-N-(2-(piperidin-4-yl)ethyl)-3-(m-tolyl)propanamide hydrochloride salt]
24 | 29 µM | 256 µg/mL | 8 µg/mL |  | Cc1cccc(C(CC(=O)N[C@H]2CC[C@H](N)CC2)c2cn(CC3CCCCC3)c3ccc(F)cc23)c1.Cl (stereo partly drawn) [Compound 125, N-((1R,4R)-4-aminocyclohexyl)-3-(1-(cyclohexylmethyl)-5-fluoro-1H-indol-3-yl)-3-(m-tolyl)propanamide hydrochloride salt]
25 | 486 µM | > 512 µg/mL | 256 µg/mL |  | Cl.N[C@H]1CC[C@H](NC(=O)CCc2cn(Cc3ccccc3)c3ccccc23)CC1 [Compound 100, N-((1R,4R)-4-aminocyclohexyl)-3-(1-benzyl-1H-indol-3-yl)propanamide hydrochloride salt]

Row | SMILES | IC50 [1] | MIC [2] | MIC [3] | IC50 ([1]; hydrochloride salt)
26 | N[C@H]1CC[C@H](CN2CCC(c3cn(CC4CCCCC4)c4ccccc34)CC2)CC1 [Compound 217, (1R,4R)-4-((4-(1-(cyclohexylmethyl)-1H-indol-3-yl)piperidin-1-yl)methyl)cyclohexan-1-amine hydrochloride salt] | 133 µM | 31 µg/mL | 8 µg/mL | 
27 | FC1(F)CCC(Cn2cc(CCNC3CCNCC3)c3cc(Br)ccc32)CC1 [Compound 290, N-(2-(5-bromo-1-((4,4-difluorocyclohexyl)methyl)-1H-indol-3-yl)ethyl)piperidin-4-amine hydrochloride salt] | 61 µM | 17 µg/mL | 17 µg/mL | 
